Assays:
HUVEC cells [1] = experiment: Effect of inhibitors/antagonists on the AdSucc-induced Ca2+ response; type: cell-based, human; details: for effect on Ca2+ response upon AdSucc treatment: PLC inhibitor / IP3 antagonist
Method: (§1) In another example, AdSucc signaling properties were studied. To validate if AdSucc may have a signaling role, the effect of AdSucc on second messenger signaling molecules was studied. […] Our initial data was collected on a plate reader that averages multicellular responses upon AdSucc stimulation. […] To get insights into a mechanism for Ca^2+ release, cells were treated with phospholipase C (PLC) inhibitors U73122 and inositol phosphate triphosphate (IP3) antagonist 2-APB. […] In FIG. 3B, forskolin was used as a positive control (n=5). In FIG. 3C AdSucc is shown to increase cytosolic Ca^2+ in the primary rat brain microvascular endothelia 9b) and HUVEC (c) cells as determined using a plate reader, ATP was used as a positive control.

[2] = tested on: primary rat microvascular endothelial cells; experiment: Intracellular Ca2+ levels in primary rat brain microvascular endothelial cells (plate reader); type: cell-based; details: ATP positive control
Method: as §1

HUVEC cells [3] = experiment: Intracellular Ca2+ levels in HUVEC cells (plate reader, single cell imaging); type: cell-based, human
Method: as §1

[4] = Brain AdSucc concentration after intranasal AdSucc treatment; type: in vivo, mice; details: 10 μL/animal over 10 min, 20 mM in PBS, pH=7.2
nude mice [5] = experiment: In vivo matrigel plaque angiogenesis assay (hemoglobin readout); details: AdSucc 0.5 mM in matrigel, s.c. in nude mice, 10 days, n=4
From the text: (§2) The pro-angiogenic AdSucc effect in vivo using a matrigel plaque loaded with AdSucc (using hemoglobin readout) or DIVA assay kit also loaded with AdSucc (using endothelial cell quantification with FITC labeled lectin) was also studied (FIG. 4B). In both assays, matrigel was implanted into nude mice (s.c.) for 10 days. […] In addition, in the matrigel assay, the concentration of AdSucc degradation products, SuccAd, was 1000-fold lower than AdSucc, and adenosine was undetectable in the matrigel (FIG. 4C).

HUVEC cells [6] = experiment: In vitro sprouting assay on collagen matrix; type: cell-based, human; details: 24 h, normoxia; for invasion and sprouting of HUVEC cells: 0.5 mM in collagen matrix, n=4
Method: In another example AdSucc's role in angiogenesis was studied. Two different models were used to collect preliminary data in support of AdSucc angiogenic properties. First, an in vitro sprouting assay—a critical step in angiogenesis—was used. HUVEC cells were plated on collagen matrix containing AdSucc, SuccAd, VEGF, or vesicle control for 24 h. For quantification of invaded and sprouted structures, z-stacked images were taking using transmitted light illumination in identical fields following glutaraldehyde fixation and toluidine blue staining. […] The concentrations used (0.5 mM) were in the range found in the brain under low energy conditions.

HUVEC cells [7] = experiment: cAMP levels in endothelial cells; type: cell-based, human; details: forskolin positive control
Method: as §1

nude mice [8] = experiment: In vivo DIVA assay kit (endothelial cell quantification with FITC labeled lectin); details: AdSucc 0.5 mM loaded, s.c. in nude mice, 10 days, n=4
From the text: as §2

[9] = tested on: mice with transient middle cerebral artery occlusion (MCAO); experiment: Stroke model: 45 min transient middle cerebral artery occlusion (MCAO), intranasal treatment; type: in vivo; details: AdSucc intranasally 2 h after reperfusion and then every 24 h, 10 μL/animal, 20 mM in PBS; tested 1-7 days post MCAO
Method: In an example, Stroke was induced in 3 month old mice with 45 min of transient middle cerebral artery occlusion (MCAO) using an intraluminal filament and performed in a double-blind manner. To correct for edema and necrotic tissue loss, corrected infarct volume was calculated as [(volume of the contralateral hemisphere) minus (volume of the viable tissue in ischemic hemisphere)] after triphenyl tetrazolium chloride (TTC) staining on day 7 post-reperfusion. Following MCAO, a modified neurological deficiency score was used to grade neurological function. A series of motor (muscle status, movement, and balance), sensory (visual, tactile, and proprioceptive) and reflex tests were graded (0—being normal and 18—maximal deficit score) by investigator who was blinded to the experimental groups. Mice were tested 1, 3, 5, and 7 days post MCAO surgery. Deaths were plotted and analyzed as survival probability. Mice were treated with AdSucc intranasally 2 h after reperfusion and then every 24 h (10 μL/animal over 10 min, 20 mM in PBS, pH=7.2). […] FIG. 1A is a graph showing neurological deficiency in the test subjects. In FIG. 1A, higher numbers indicate higher deficiency between saline and AdSucc treated animals at the same test day. […] FIG. 1C is a graph showing representative blood flow rate during MCAO surgery as recorded with a laser Doppler sensor.

[10] = Matrigel analysis for products of AdSucc degradation upon incubation in vivo; design: species or system mice; details: AdSucc loaded matrigel after in vivo incubation, n=3
From the text: as §2

## NCCOB(c1ccccc1)c1ccccc1 [2-APB]
HUVEC cells [1]; HUVEC cells, n=5
  effect on Ca2+ response upon AdSucc treatment: significantly attenuated

## O=C(O)C[C@H](Nc1ncnc2c1ncn2[C@@H]1O[C@H](COP(=O)(O)O)[C@@H](O)[C@H]1O)C(=O)O [AdSucc, (2S)-2-({9-[(2R,3R,4S,5R)-3,4-dihydroxy-5-[(phosphonooxy)methyl]oxolan-2-yl]-9H-purin-6-yl}amino)butanedioic acid]
[2]
  effect on intracellular Ca2+ levels: very profound effect
HUVEC cells [3]; 2 micromolar Fura, 0 and 100 sec after AdSucc 0.3 mM in PBS
  Ca2+ increase by single cell Ca2+ imaging: independently confirmed
HUVEC cells [3]; plate reader, AdSucc at the concentration found in the ischemic brain, comparable to ATP treatment
  effect on intracellular Ca2+ levels: very profound effect
[4]
  brain AdSucc concentrations: significantly increased
Nude mice [5]
  angiogenesis in loaded matrigel (hemoglobin): significantly increased
HUVEC cells [6]
  invasion and sprouting of HUVEC cells: significantly potentiated
HUVEC cells [6]; 0.5 mM
  invasion and sprouting effect compared to VEGF: higher effect compared to VEGF
HUVEC cells [7]
  effect on cAMP levels: no effect
Nude mice [8]
  angiogenesis in DIVA assay (FITC lectin labeled endothelial cells): significantly increased
[9]
  outcome after stroke injury (neurological deficiency score, survival, corrected infarct volume): significant improvement

## Cc1c(C(=O)Nc2cccc(C(F)(F)F)c2)cc(-c2ccccc2)n1CCCN1CCOCC1 [HC 067047]
HUVEC cells [1]; TROV4 antagonist at 0.5 μM
  effect on AdSucc-induced Ca2+ signaling: did not affect

## Cc1cc(N2CCCCC2)nc2ccccc12 [ML 204]
HUVEC cells [1]; TRPC 4/5 antagonist at 25 μM
  effect on AdSucc-induced Ca2+ signaling: did not affect

## Cc1nc(N=Nc2ccc(S(=O)(=O)O)cc2S(=O)(=O)O)c(COP(=O)(O)O)c(C=O)c1O [PPADS]
HUVEC cells [1]; non-selective P2 purinergic antagonist, HUVEC cells, n=5
  effect on AdSucc-induced Ca2+ response: significantly attenuated

## O=C(O)C[C@H](Nc1ncnc2c1ncn2[C@@H]1O[C@H](CO)[C@@H](O)[C@H]1O)C(=O)O [SuccAd, N-(9-β-D-ribofuranosyl-9H-purin-6-yl)-L-aspartic acid]
[10]; lower than AdSucc
  concentration of the AdSucc degradation product in the matrigel, relative to AdSucc: 1000 fold
HUVEC cells [6]
  invasion and sprouting of HUVEC cells: did not have an effect

## COc1ccc2c(c1)CC[C@@H]1[C@@H]2CC[C@]2(C)[C@@H](NCCCCCCN3C(=O)C=CC3=O)CC[C@@H]12 [U73122]
HUVEC cells [1]; HUVEC cells, n=5
  effect on Ca2+ response upon AdSucc treatment: significantly attenuated

## Nc1ncnc2c1ncn2[C@@H]1O[C@H](CO)[C@@H](O)[C@H]1O [adenosine]
[10]
  degradation product level in the matrigel: undetectable

— patent US20210277005A1, “PROANGIOGENIC COMPOSITIONS AND METHODS OF USE” (University of North Dakota, priority 2020, published 2021)
